Data: US20230322723A1, “COMPOUNDS FOR SUPPRESSING EGFR MUTANT CANCER AND PHARMACEUTICAL USE THEREOF” (J2H BIOTECH INC., priority 2020, published 2023)

Experiments:
EGFR^del19+T790M+C797S = experiment: EGFR protein degradation test (Western blot) in Ba/F3 cells expressing mutant EGFR del19+T790M+C797S (DTC); type: cell-based; conditions: compounds at 0.1 μM and 1 μM, 24 hours, Western blot with EGFR antibody
Protocol: (§1) The ability of the compounds of the present invention to degrade the mutant EGFR protein was confirmed in Ba/F3 cells expressing normal EGFR, mutant EGFR^del19+T790M+C797S or mutant EGFR^L858R+T790M+C797S. A Western blot test using the EGFR antibody was performed.
(§2) Specifically, Ba/F3 cells expressing EGFR were cultured in RPMI 1640 (Gibco, NY, USA) containing 10% fetal bovine serum (FBS, Gibco, NY, USA). Cells expressing normal EGFR, mutant EGFR^del19+T790M+C797S or mutant EGFR^L858R+T790M+C797S were treated with the compounds of the present invention at concentrations of 0.1 μM and 1 μM, respectively, for 24 hours. After that, it was washed twice with phosphate buffered saline (PBS) and SDS-PAGE was performed with 30 μg of cell lysate. After the protein separated on the gel was transferred to a nitrocellulose membrane, the expression level of the EGFR protein was confirmed using an EGFR antibody (Santa Cruz biotechnology, Santacruz, CA, USA). EGFR bands separated by Western blotting were quantitatively analyzed with Fluo-S MultiImager (Bio-Rad, Hercules, CA, USA).

EGFR^L858R+T790M+C797S = biological target: T1, EGFR^L858R+T790M+C797S (Homo sapiens, UniProt P00533, C797S/L858R/T790M); experiment: EGFR protein degradation test (Western blot) in Ba/F3 cells expressing mutant EGFR L858R+T790M+C797S (LTC); type: cell-based; conditions: compounds at 0.1 μM and 1 μM, 24 hours, Western blot with EGFR antibody
T1 construct: expressed in transfected cells; host or cells: Ba/F3
T1 sequence (P00533 25-1210 T790M/C797S/L858R): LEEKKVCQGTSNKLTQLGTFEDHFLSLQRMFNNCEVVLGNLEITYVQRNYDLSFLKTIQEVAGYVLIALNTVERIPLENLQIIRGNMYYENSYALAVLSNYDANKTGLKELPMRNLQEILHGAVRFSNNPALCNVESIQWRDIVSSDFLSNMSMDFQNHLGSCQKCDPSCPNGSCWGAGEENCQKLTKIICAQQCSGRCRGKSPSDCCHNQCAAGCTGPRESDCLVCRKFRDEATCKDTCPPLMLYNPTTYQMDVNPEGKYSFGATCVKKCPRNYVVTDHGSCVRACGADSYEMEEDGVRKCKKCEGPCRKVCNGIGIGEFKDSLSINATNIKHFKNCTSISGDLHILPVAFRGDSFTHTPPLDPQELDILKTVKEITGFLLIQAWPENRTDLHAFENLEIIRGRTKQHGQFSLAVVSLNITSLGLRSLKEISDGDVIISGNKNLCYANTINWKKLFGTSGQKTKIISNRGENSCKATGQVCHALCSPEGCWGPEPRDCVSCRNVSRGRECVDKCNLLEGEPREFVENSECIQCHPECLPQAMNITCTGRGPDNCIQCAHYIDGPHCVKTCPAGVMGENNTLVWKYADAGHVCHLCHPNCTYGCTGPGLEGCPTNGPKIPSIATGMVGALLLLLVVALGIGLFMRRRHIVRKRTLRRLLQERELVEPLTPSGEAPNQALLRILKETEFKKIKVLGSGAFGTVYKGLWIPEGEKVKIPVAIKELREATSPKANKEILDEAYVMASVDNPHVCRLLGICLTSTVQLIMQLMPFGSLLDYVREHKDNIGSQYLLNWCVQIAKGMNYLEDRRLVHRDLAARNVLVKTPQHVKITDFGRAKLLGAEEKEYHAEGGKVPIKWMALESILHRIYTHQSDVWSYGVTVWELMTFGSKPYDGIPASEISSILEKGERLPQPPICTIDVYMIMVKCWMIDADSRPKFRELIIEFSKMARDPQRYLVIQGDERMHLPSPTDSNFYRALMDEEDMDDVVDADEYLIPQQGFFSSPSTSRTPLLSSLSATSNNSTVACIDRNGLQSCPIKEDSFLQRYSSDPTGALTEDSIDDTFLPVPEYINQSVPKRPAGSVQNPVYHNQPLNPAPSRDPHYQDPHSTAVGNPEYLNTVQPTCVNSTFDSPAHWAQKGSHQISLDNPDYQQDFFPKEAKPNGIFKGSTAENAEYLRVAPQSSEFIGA
Protocol: as §1, §2

Compound	LTC (EGFR^L858R+T790M+C797S) protein degradation (EGFR^L858R+T790M+C797S)	DTC (EGFR^del19+T790M+C797S) protein degradation (EGFR^del19+T790M+C797S)
COc1cc(N2CCN(CCCCC(=O)Nc3cccc4c3C(=O)N(C3CCC(=O)NC3=O)C4=O)CC2)ccc1Nc1ncc(Cl)c(Nc2ccccc2N(C)S(C)(=O)=O)n1 (centres unmarked) [Compound 1, 5-(4-(4-((5-chloro-4-((2-(N-methylmethylsulfonamido)phenyl)amino)pyrimidin-2-yl)amino)-3-methoxyphenyl)piperazin-1-yl)-N-(2-(2,6-dioxopiperidin-3-yl)-1,3-dioxoisoindolin-4-yl)pentanamide]	− (Protein degradation < 20%)	− (Protein degradation < 20%)
COc1cc(N2CCC(N3CCN(CCCCC(=O)Nc4cccc5c4C(=O)N(C4CCC(=O)NC4=O)C5=O)CC3)CC2)ccc1Nc1ncc(Cl)c(Nc2ccccc2N(C)S(C)(=O)=O)n1 (centres unmarked) [Compound 2, 5-(4-(1-(4-((5-chloro-4-((2-(N-methylmethylsulfonamido)phenyl)amino)pyrimidin-2-yl)amino)-3-methoxyphenyl)piperidin-4-yl)piperazin-1-yl)-N-(2-(2,6-dioxopiperidin-3-yl)-1,3-dioxoisoindolin-4-yl)pentanamide]	− (Protein degradation < 20%)	+ (Protein degradation 20~80%)
COc1cc(N2CCC(N(C)CCCCOc3cccc4c3C(=O)N(C3CCC(=O)NC3=O)C4=O)CC2)ccc1Nc1ncc(Cl)c(Nc2ccccc2N(C)S(C)(=O)=O)n1 (centres unmarked) [Compound 3, N-(2-((5-chloro-2-((4-(4-((4-((2-(2,6-dioxopiperidin-3-yl)-1,3-dioxoisoindolin-4-yl)oxy)butyl)(methyl)amino)piperidin-1-yl)-2-methoxyphenyl)amino)pyrimidin-4-yl)amino)phenyl)-N-methylmethanesulfonamide]	− (Protein degradation < 20%)	− (Protein degradation < 20%)
COc1cc(N2CCN(CCCCCCCCCCC(=O)Nc3cccc4c3C(=O)N(C3CCC(=O)NC3=O)C4=O)CC2)ccc1Nc1ncc(Cl)c(Nc2ccccc2N(C)S(C)(=O)=O)n1 (centres unmarked) [Compound 4, 11-(4-(4-((5-chloro-4-((2-(N-methylmethylsulfonamido)phenyl)amino)pyrimidin-2-yl)amino)-3-methoxyphenyl)piperazin-1-yl)-N-(2-(2,6-dioxopiperidin-3-yl)-1,3-dioxoisoindolin-4-yl)undecanamide]	− (Protein degradation < 20%)	− (Protein degradation < 20%)
COc1cc(N2CCC(N3CCN(CCCCCCCCCCC(=O)Nc4cccc5c4C(=O)N(C4CCC(=O)NC4=O)C5=O)CC3)CC2)ccc1Nc1ncc(Cl)c(Nc2ccccc2N(C)S(C)(=O)=O)n1 (centres unmarked) [Compound 5, 11-(4-(1-(4-((5-chloro-4-((2-(N-methylmethylsulfonamido)phenyl)amino)pyrimidin-2-yl)amino)-3-methoxyphenyl)piperidin-4-yl)piperazin-1-yl)-N-(2-(2,6-dioxopiperidin-3-yl)-1,3-dioxoisoindolin-4-yl)undecanamide]	− (Protein degradation < 20%)	− (Protein degradation < 20%)
COc1cc(N2CCN(CCCCC(=O)N[C@H](C(=O)N3C[C@H](O)C[C@@H]3C(=O)NCc3ccc(-c4scnc4C)cc3)C(C)(C)C)CC2)ccc1Nc1ncc(Cl)c(Nc2ccccc2N(C)S(C)(=O)=O)n1 [Compound 6, (2R,4R)-1-((S)-2-(5-(4-(4-((5-chloro-4-((2-(N-methylmethylsulfonamido)phenyl)amino)pyrimidin-2-yl)amino)-3-methoxyphenyl)piperazin-1-yl)pentanamido)3,3-dimethylbutanoyl)4-hydroxy-N-(4-(4-methylthiazol-5-yl)benzyl)pyrrolidin-2-carboxamide]	− (Protein degradation < 20%)	+ (Protein degradation 20~80%)
COc1cc(N2CCC(N3CCN(CCCCC(=O)N[C@H](C(=O)N4C[C@H](O)C[C@@H]4C(=O)NCc4ccc(-c5scnc5C)cc4)C(C)(C)C)CC3)CC2)ccc1Nc1ncc(Cl)c(Nc2ccccc2N(C)S(C)(=O)=O)n1 [Compound 7, (2R,4R)-1-((S)-2-(5-(4-(1-(4-((5-chloro-4-((2-(N-methylmethylsulfonamido)phenyl)amino)pyrimidin-2-yl)amino)-3-methoxyphenyl)piperidin-4-yl)piperazin-1-yl)pentanamido)-3,3-dimethylbutanoyl)-4-hydroxy-N-(4-(4-methylthiazol-5-yl)benzyl)pyrrolidin-2-carboxamide]	− (Protein degradation < 20%)	+ (Protein degradation 20~80%)

Second part, led by results:

LTC (EGFR^L858R+T790M+C797S) protein degradation (EGFR^L858R+T790M+C797S)	Compound	DTC (EGFR^del19+T790M+C797S) protein degradation (EGFR^del19+T790M+C797S)
+ (Protein degradation 20~80%)	COc1cc(N2CCC3(CCN(CC(=O)N[C@H](C(=O)N4C[C@H](O)CC4C(=O)NCc4ccc(-c5scnc5C)cc4)C(C)(C)C)CC3)CC2)ccc1Nc1ncc(Cl)c(Nc2ccccc2N(C)S(C)(=O)=O)n1 (stereo in doubt) [Compound 31, (2R,4R)-1-((S)-2-(2-(9-(4-((5-chloro-4-((2-(N-methylmethylsulfonamido)phenyl)amino)pyrimidin-2-yl)amino)-3-methoxyphenyl)-3,9-diazaspiro[5,5]undecan-3-yl)acetamido)-3,3-dimethylbutanoyl)-4-hydroxy-N-(4-(4-methylthiazol-5-yl)benzyl)pyrrolidin-2-carboxamide]	++ (Protein degradation > 80%)
− (Protein degradation < 20%)	COc1cc(N2CCN(CC3CCN(CC(=O)N[C@H](C(=O)N4C[C@H](O)CC4C(=O)NCc4ccc(-c5scnc5C)cc4)C4CC4)CC3)CC2)ccc1Nc1ncc(Cl)c(Nc2ccccc2N(C)S(C)(=O)=O)n1 (stereo in doubt) [Compound 55, (2R,4R)-1-((S)-2-(2-(4-((4-(4-((5-chloro-4-((2-(N-methylmethylsulfonamido)phenyl)amino)pyrimidin-2-yl)amino)-3-methoxyphenyl)piperazin-1-yl)methyl)piperidin-1-yl)acetamido)-2-cyclopropylacetyl)-4-hydroxy-N-(4-(4-methylthiazol-5-yl)benzyl)pyrrolidin-2-carboxamide]	− (Protein degradation < 20%)
− (Protein degradation < 20%)	COc1cc(N2CCN(CC3CCN(CC(=O)N[C@H](C(=O)N4C[C@H](O)CC4C(=O)NCc4ccc(-c5scnc5C)cc4)C(C)C)CC3)CC2)ccc1Nc1ncc(Cl)c(Nc2ccccc2N(C)S(C)(=O)=O)n1 (stereo in doubt) [Compound 56, (2R,4R)-1-((2-(4-((4-(4-((5-chloro-4-((2-(N-methylmethylsulfonamido)phenyl)amino)pyrimidin-2-yl)amino)-3-methoxyphenyl)piperazin-1-yl)methyl)piperidin-1-yl)acetyl)-L-valyl)-4-hydroxy-N-(4-(4-methylthiazol-5-yl)benzyl)pyrrolidin-2-carboxamide]	+ (Protein degradation 20~80%)
− (Protein degradation < 20%)	COc1cc(N2CCN(CCOCCOCC(=O)Nc3cccc4c3C(=O)N(C3CCC(=O)NC3=O)C4=O)CC2)ccc1Nc1ncc(Cl)c(Nc2ccccc2N(C)S(C)(=O)=O)n1 (centres unmarked) [Compound 8, 2-(2-(2-(4-(4-((5-chloro-4-((2-(N-methylmethylsulfonamido)phenyl)amino)pyrimidin-2-yl)amino)-3-methoxyphenyl)piperazin-1-yl)ethoxy)ethoxy)-N-(2-(2,6-dioxopiperidin-3-yl)-1,3-dioxoisoindolin-4-yl)acetamide]	− (Protein degradation < 20%)
− (Protein degradation < 20%)	COc1cc(N2CCC(N3CCN(CCOCCOCC(=O)Nc4cccc5c4C(=O)N(C4CCC(=O)NC4=O)C5=O)CC3)CC2)ccc1Nc1ncc(Cl)c(Nc2ccccc2N(C)S(C)(=O)=O)n1 (centres unmarked) [Compound 9, 2-(2-(2-(4-(1-(4-((5-chloro-4-((2-(N-methylmethylsulfonamido)phenyl)amino)pyrimidin-2-yl)amino)-3-methoxyphenyl)piperidin-4-yl)piperazin-1-yl)ethoxy)ethoxy)-N-(2-(2,6-dioxopiperidin-3-yl)-1,3-dioxoisoindolin-4-yl)acetamide]	− (Protein degradation < 20%)
− (Protein degradation < 20%)	COc1cc(N2CCN(CCOCCOCC(=O)N[C@H](C(=O)N3C[C@H](O)C[C@@H]3C(=O)NCc3ccc(-c4scnc4C)cc3)C(C)(C)C)CC2)ccc1Nc1ncc(Cl)c(Nc2ccccc2N(C)S(C)(=O)=O)n1 [Compound 10, (2R,4R)-1-((S)-2-(2-(2-(2-(4-(4-((5-chloro-4-((2-(N-methylmethylsulfonamido)phenyl)amino)pyrimidin-2-yl)amino)-3-methoxyphenyl)piperazin-1-yl)ethoxy)ethoxy)acetamido)-3,3-dimethylbutanoyl)-4-hydroxy-N-(4-(4-methylthiazol-5-yl)benzyl)pyrrolidin-2-carboxamide]	− (Protein degradation < 20%)
